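Five compound concentrations were applied to cells in 96-well plates for 48 hours; endpoints were derived by simple linear interpolation of the resulting dose-response curve. GI50 is the concentration that inhibits growth by half. Definition used: TGI = concentration required for complete inhibition of growth.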
What was measured:
Experiment in all cases: growth of human tumour cells (NCI), 48 h
NCI-H23 lung = system: NCI-H23 lung
OVCAR-5 ovarian = system: OVCAR-5 ovarian
SF-295 CNS = system: SF-295 CNS
UACC-257 melanoma = system: UACC-257 melanoma
SK-MEL-2 melanoma = system: SK-MEL-2 melanoma
HT29 colon = system: HT29 colon
SNB-19 CNS = system: SNB-19 CNS
SK-MEL-28 melanoma = system: SK-MEL-28 melanoma
UO-31 renal = system: UO-31 renal
HL-60(TB) leukemia = system: HL-60(TB) leukemia

| SMILES | TGI (NCI-H23 lung) | TGI (OVCAR-5 ovarian) | TGI (SF-295 CNS) | TGI (UACC-257 melanoma) | TGI (SK-MEL-2 melanoma) | TGI (HT29 colon) | TGI (SNB-19 CNS) | TGI (SK-MEL-28 melanoma) | TGI (UO-31 renal) | TGI (HL-60(TB) leukemia) | GI50 (NCI-H23 lung) | GI50 (OVCAR-5 ovarian) | GI50 (SF-295 CNS) | GI50 (UACC-257 melanoma) | GI50 (HL-60(TB) leukemia) | GI50 (SK-MEL-2 melanoma) | GI50 (HT29 colon) | GI50 (SNB-19 CNS) | GI50 (UO-31 renal) |
| --- | --- | --- | --- | --- | --- | --- | --- | --- | --- | --- | --- | --- | --- | --- | --- | --- | --- | --- | --- |
| c1ccc2sc(SCN(C3CCCCC3)C3CCCCC3)nc2c1 | > 100 µM | > 100 µM | > 100 µM | > 100 µM | > 100 µM | > 100 µM | > 100 µM | > 100 µM | > 100 µM | – | – | – | – | – | – | – | – | – | – |
| COc1cc(S(=O)(=O)Nc2nc(-c3ccc(N)cc3)cs2)ccc1Cl | > 100 µM | > 100 µM | > 100 µM | > 100 µM | > 100 µM | > 100 µM | > 100 µM | > 100 µM | > 100 µM | > 100 µM | – | – | – | – | – | – | – | – | – |
| COc1ccc(OC)c(C#Cc2ccc(OC)c(C(=O)NCCc3ccc(F)cc3)c2)c1 | > 100 µM | > 100 µM | > 100 µM | > 100 µM | > 100 µM | > 100 µM | > 100 µM | – | > 100 µM | > 100 µM | – | – | – | – | – | – | – | – | – |
| Cc1cc(N(CCCCl)CCCCl)ccc1C=Nc1cccc(Cl)c1 | 27.7 µM | 12.6 µM | 43.5 µM | 20.2 µM | 36.5 µM | 27.7 µM | 34.6 µM | 41.5 µM | 44.2 µM | 38 µM | – | – | – | – | – | – | – | – | – |
| COc1ccc([C@H]2C=C(c3cc(F)c(Cl)cc3Cl)NC(=S)N2)cc1 | > 100 µM | > 100 µM | > 100 µM | 76.2 µM | 58.4 µM | 80.5 µM | > 100 µM | > 100 µM | > 100 µM | 35.7 µM | – | – | – | – | – | – | – | – | – |
| CC(C)=CCC[C@](C)(O[C@@H]1O[C@H](CO)[C@@H](O)[C@H](O)[C@H]1O)[C@H]1CC[C@]2(C)[C@@H]1[C@H](O)C[C@@H]1[C@@]3(C)CC[C@H](O)C(C)(C)[C@@H]3[C@@H](O[C@@H]3O[C@H](CO)[C@@H](O)[C@H](O)[C@H]3O)C[C@]12C | > 100 µM | > 100 µM | > 100 µM | > 100 µM | > 100 µM | > 100 µM | > 100 µM | > 100 µM | > 100 µM | > 100 µM | – | – | – | – | – | – | – | – | – |
| COc1cc2c(cc1Oc1ccc(OC)c3c1CC1c4c(cc(OC)c(OC)c4-3)CCN1C)CC1c3c(cc(OC)c(OC)c3-2)CCN1C (stereo not given) | 27.4 µM | 12.8 µM | 6.11 µM | 3.21 µM | 3.79 µM | 2.94 µM | 14.5 µM | 3.44 µM | 17.7 µM | 2.72 µM | – | – | – | – | – | – | – | – | – |
| O=c1cc(O)c2ccccc2o1 | > 100 µM | > 100 µM | > 100 µM | > 100 µM | – | > 100 µM | > 100 µM | > 100 µM | > 100 µM | > 100 µM | – | – | – | – | – | – | – | – | – |
| Cn1c(Sc2ccc(-c3cccnc3)n2C)ccc1-c1cccnc1 | 34.8 µM | 50.9 µM | 38.6 µM | 29.1 µM | 30.1 µM | 55.1 µM | 42.3 µM | 26.9 µM | 33.4 µM | 5.78 µM | – | – | – | – | – | – | – | – | – |
| CCOC(=O)CCC(C(=O)OCC)n1nnc2ccc(Nc3c(C)[n+]([O-])c4cc(Cl)ccc4[n+]3[O-])cc21 (stereo not given) | 69.4 µM | > 100 µM | > 100 µM | 30.8 µM | 57 µM | 68.9 µM | > 100 µM | – | > 100 µM | 83.5 µM | – | – | – | – | – | – | – | – | – |
| COc1cc(O)c2c(c1)C(=O)c1cc(C)cc(O)c1C2=O | > 100 µM | > 100 µM | > 100 µM | > 100 µM | > 100 µM | > 100 µM | > 100 µM | > 100 µM | > 100 µM | > 100 µM | – | – | – | – | – | – | – | – | – |
| CCOC(=O)NC | > 100 µM | > 100 µM | > 100 µM | > 100 µM | > 100 µM | > 100 µM | > 100 µM | > 100 µM | > 100 µM | > 100 µM | – | – | – | – | – | – | – | – | – |
| Cc1c2cccc-2ccc2c1[nH]c1ccc(Br)cc12 | 22.4 µM | 16.7 µM | 15.7 µM | > 100 µM | 17.9 µM | 27.9 µM | 23.8 µM | 24 µM | 18.6 µM | > 100 µM | – | – | – | – | – | – | – | – | – |
| Nc1nnc(N)n1NC(=O)C(=O)Nc1ccc([N+](=O)[O-])cc1 | > 100 µM | > 100 µM | > 100 µM | > 100 µM | > 100 µM | > 100 µM | > 100 µM | > 100 µM | > 100 µM | > 100 µM | – | – | – | – | – | – | – | – | – |
| NNc1ccccc1Cl | > 100 µM | > 100 µM | > 100 µM | > 100 µM | > 100 µM | > 100 µM | > 100 µM | > 100 µM | > 100 µM | > 100 µM | – | – | – | – | – | – | – | – | – |
| Nc1ccc(Nc2c3ccccc3nc3ccccc23)cc1 | > 10 µM | > 10 µM | > 10 µM | > 10 µM | > 10 µM | > 10 µM | > 10 µM | > 10 µM | – | > 10 µM | – | – | – | – | – | – | – | – | – |
| O=C(O)C1=NNC(C(=O)O)=NN1 | > 100 µM | > 100 µM | > 100 µM | > 100 µM | > 100 µM | > 100 µM | > 100 µM | > 100 µM | > 100 µM | > 100 µM | – | – | – | – | – | – | – | – | – |
| O=C1c2ccccc2C(=O)c2c1ccc(C(=O)O)c2-c1ccc2ccccc2c1 | 46.5 µM | 59.3 µM | 81 µM | > 100 µM | 48.5 µM | > 100 µM | > 100 µM | > 100 µM | 83.3 µM | 61.2 µM | – | – | – | – | – | – | – | – | – |
| Cc1cc(=O)oc2c1cc(OCC(=O)OCCN1CCCCC1)c1occ(C)c12 | > 100 µM | > 100 µM | > 100 µM | > 100 µM | > 100 µM | > 100 µM | > 100 µM | > 100 µM | > 100 µM | > 100 µM | – | – | – | – | – | – | – | – | – |
| CC(CO)(CO)Nc1ncnc2ccccc12 | > 100 µM | > 100 µM | > 100 µM | > 100 µM | > 100 µM | > 100 µM | > 100 µM | > 100 µM | > 100 µM | – | – | – | – | – | – | – | – | – | – |
| NC(=O)Nc1cc(O)ccc1N=Nc1ccc(S(=O)(=O)Nc2ccccn2)cc1 | > 100 µM | > 100 µM | > 100 µM | > 100 µM | > 100 µM | > 100 µM | > 100 µM | > 100 µM | > 100 µM | > 100 µM | – | – | – | – | – | – | – | – | – |
| C[n+]1ccc(-c2cc[n+](C)cc2)cc1 | > 29.3 µM | 37.9 µM | > 37.6 µM | 3.09 µM | 13.1 µM | > 81.9 µM | > 100 µM | > 100 µM | > 100 µM | 24.8 µM | – | – | – | – | – | – | – | – | – |
| Fc1ccc(-c2nnc3sc(COc4ccccc4Cl)nn23)cc1Cl | > 100 µM | > 100 µM | > 100 µM | > 100 µM | > 100 µM | > 100 µM | > 100 µM | – | > 100 µM | > 100 µM | 33.4 µM | 81 µM | 61.8 µM | 46.2 µM | 30.4 µM | 51.8 µM | 48.1 µM | 39.9 µM | 32.7 µM |
| CC[C@H](C)C1=C(O)[N@+]2([O-])Oc3ccc(-c4c(O)c(O)c(-c5ccc(OC(C)=O)cc5)c(OC(C)=O)c4OC(C)=O)cc3O[C@]2([C@@H](C)CC)C(=O)N1O | > 50 µM | > 50 µM | > 50 µM | > 50 µM | > 50 µM | > 50 µM | > 50 µM | > 50 µM | > 50 µM | > 50 µM | – | – | – | – | – | – | – | – | – |
| CC1(O)CC23CC1CCC2(C)C12CCCC(C)(C(=O)O1)C2CC3O (stereo not given) | > 100 µM | > 100 µM | > 100 µM | > 100 µM | > 100 µM | > 100 µM | > 100 µM | > 100 µM | > 100 µM | – | – | – | – | – | – | – | – | – | – |
| COc1c(Cl)cc(S(=O)O)cc1Cl | > 100 µM | > 100 µM | – | > 100 µM | > 100 µM | > 100 µM | > 100 µM | > 100 µM | > 100 µM | > 100 µM | – | – | – | – | – | – | – | – | – |
